The target of series [1] is T1, ACOT8 peroxisomal acyl-CoA thioesterase 8 (Mus musculus, UniProt P58137).
T1 construct: His-Tag; host or cells: E. coli
T1 sequence (P58137 1-320): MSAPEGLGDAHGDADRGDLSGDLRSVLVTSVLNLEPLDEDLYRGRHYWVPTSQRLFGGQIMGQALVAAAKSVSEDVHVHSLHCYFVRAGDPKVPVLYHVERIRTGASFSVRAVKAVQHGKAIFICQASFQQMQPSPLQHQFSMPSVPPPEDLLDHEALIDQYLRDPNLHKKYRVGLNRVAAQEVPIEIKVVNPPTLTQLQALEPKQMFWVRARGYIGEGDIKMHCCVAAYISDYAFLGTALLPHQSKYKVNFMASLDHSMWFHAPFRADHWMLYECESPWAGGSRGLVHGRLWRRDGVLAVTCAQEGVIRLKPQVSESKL
The note with it: inhibition of ACOT8; cited from earlier work.

The target of series [2] is T2, ACOT4 peroxisomal acyl-CoA thioesterase 4 (Mus musculus, UniProt Q8BWN8).
T2 construct: His-tag; host or cells: E. coli
T2 sequence (Q8BWN8 1-421): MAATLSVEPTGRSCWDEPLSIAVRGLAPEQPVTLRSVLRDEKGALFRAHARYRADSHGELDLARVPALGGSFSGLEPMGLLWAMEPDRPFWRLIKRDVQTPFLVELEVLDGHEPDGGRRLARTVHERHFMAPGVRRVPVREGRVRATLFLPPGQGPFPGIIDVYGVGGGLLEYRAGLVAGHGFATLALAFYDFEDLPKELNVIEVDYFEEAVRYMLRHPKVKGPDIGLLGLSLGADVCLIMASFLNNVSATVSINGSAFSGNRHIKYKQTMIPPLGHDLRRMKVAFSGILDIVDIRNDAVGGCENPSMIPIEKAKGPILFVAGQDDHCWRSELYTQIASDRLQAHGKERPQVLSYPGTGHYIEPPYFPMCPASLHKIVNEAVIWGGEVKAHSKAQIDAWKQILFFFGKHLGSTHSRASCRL
The note with it: CoASH at concentrations up to 500 μM; cited from earlier work.

In the next series the target is T3, ACOT3 (formerly PTE-1a) (Mus musculus, UniProt Q9QYR7).
T3 construct: His-tag; host or cells: E. coli
T3 sequence (Q9QYR7 1-432): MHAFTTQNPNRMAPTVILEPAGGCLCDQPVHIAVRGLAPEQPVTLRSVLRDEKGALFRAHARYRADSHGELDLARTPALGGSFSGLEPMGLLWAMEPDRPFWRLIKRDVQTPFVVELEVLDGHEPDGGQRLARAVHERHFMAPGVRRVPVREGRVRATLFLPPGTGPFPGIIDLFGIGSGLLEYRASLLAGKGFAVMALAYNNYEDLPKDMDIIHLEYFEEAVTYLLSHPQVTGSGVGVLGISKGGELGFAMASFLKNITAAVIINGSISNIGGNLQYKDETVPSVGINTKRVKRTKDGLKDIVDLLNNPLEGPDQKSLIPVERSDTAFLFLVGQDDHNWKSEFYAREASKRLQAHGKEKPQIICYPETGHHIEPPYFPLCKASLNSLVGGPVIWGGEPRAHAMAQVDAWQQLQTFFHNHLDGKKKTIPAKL
The note with it: free CoASH; cited from earlier work.

Another series addresses T4, ACOT5 (formerly PTE-1c) (Mus musculus, UniProt Q6Q2Z6).
T4 construct: His-tag; host or cells: E. coli
T4 sequence (Q6Q2Z6 1-421): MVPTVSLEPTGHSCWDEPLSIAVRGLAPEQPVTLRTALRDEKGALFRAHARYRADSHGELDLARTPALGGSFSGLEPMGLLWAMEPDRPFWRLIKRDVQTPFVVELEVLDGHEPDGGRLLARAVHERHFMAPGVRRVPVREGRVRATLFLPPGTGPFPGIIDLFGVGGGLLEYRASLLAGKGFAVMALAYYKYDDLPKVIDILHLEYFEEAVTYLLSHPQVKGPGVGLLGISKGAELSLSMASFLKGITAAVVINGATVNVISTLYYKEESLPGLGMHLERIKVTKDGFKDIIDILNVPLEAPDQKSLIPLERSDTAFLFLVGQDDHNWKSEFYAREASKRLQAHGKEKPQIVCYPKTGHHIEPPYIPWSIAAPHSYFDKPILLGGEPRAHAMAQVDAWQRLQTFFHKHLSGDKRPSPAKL
To be noted: free CoASH; cited from earlier work.

Series [3] addresses T5, AAR acyl-ACP reductase (YP_400611) (Synechococcus elongatus, UniProt Q54765).
T5 construct: host or cells: E. coli MG1655
T5 sequence (Q54765 1-341): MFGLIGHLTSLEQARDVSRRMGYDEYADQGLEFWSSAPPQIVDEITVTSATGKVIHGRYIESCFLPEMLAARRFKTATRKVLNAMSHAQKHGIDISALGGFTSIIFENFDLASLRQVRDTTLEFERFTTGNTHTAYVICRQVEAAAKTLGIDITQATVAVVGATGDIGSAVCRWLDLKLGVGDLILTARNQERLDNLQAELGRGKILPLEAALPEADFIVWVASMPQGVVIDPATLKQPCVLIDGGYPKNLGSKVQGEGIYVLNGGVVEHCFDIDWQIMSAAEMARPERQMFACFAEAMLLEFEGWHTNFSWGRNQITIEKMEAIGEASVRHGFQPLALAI
The note with it: substrate of AAR, octadecanal formed, NADPH-dependent; cited from earlier work.

Series [4] concerns the target T6, Nocardia sp. carboxylic acid reductase (CAR) (Nocardia iowensis, UniProt Q6RKB1).
T6 construct: made in house; host or cells: E. coli BL-21 (DE3) RP1pPV2-85; cell free extract
T6 sequence (Q6RKB1 1-1174): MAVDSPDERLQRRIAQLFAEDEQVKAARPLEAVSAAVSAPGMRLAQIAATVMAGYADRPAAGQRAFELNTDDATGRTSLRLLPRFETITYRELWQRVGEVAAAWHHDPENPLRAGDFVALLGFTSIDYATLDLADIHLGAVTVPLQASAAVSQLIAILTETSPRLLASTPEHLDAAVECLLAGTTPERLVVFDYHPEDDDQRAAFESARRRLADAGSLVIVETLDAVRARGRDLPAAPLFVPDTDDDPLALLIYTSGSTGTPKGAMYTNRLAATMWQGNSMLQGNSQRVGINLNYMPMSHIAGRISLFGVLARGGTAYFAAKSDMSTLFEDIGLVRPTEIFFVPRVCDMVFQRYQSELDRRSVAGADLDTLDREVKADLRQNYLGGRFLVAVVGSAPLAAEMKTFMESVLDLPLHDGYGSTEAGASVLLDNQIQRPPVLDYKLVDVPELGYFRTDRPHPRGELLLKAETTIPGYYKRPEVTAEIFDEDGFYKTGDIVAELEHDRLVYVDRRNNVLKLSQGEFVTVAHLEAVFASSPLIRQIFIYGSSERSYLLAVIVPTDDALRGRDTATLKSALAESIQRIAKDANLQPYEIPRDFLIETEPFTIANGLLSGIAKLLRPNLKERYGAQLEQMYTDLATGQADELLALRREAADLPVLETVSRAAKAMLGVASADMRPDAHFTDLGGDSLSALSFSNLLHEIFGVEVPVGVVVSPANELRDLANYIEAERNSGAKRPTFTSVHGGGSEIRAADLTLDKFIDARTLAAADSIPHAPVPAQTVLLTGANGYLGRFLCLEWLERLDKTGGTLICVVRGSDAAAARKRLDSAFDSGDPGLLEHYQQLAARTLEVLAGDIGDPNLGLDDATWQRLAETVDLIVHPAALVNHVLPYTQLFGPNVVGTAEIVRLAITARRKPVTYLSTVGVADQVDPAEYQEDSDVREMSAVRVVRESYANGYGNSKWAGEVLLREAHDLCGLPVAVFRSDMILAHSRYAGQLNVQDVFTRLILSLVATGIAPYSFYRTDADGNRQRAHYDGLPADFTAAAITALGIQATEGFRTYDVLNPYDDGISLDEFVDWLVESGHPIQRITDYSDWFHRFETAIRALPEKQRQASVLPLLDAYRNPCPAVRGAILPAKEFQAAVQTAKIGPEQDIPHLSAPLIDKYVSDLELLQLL
The series can be described thus: Spectrophotometric carboxylic acid reductase (CAR) activity assay, change in absorbance at 340 nm. Type of series: biochemical. The note with it: for Adjusted for background: gradient of change in absorbance at 340 nm adjusted for background; for gradient of trend line: rate of change in absorbance at 340 nm, CAR cell free extract, substrate added after 2 minutes; for Relative rate % compared to benzoate: relative rate of change in absorbance at 340 nm. How it is done: The conditions for the assay were taken from Applied and Environmental Microbiology 2004, 70, p 1874-1881.
In a quartz cuvette the following reagents were added: 100 μL MgCl2, 100 μL, ATP, 100 μL NADPH, 200 μL Tris.HCl buffer. The absorbance at 340 nm was measured and recorded and 100 μL of CAR cell free extract was added. The absorbance was monitored and recorded. […] The absorbance monitored over time was subtracted from the initial measurement.

In series [5] the target is T7, Amino adipate aminotransferase (Q64602) (Bos taurus, UniProt Q5E9N4).
T7 construct: Purification and properties of 2-aminoadipate: 2-oxoglutarate aminotransferase from bovine kidney; host or cells: bovine kidney
T7 sequence (Q5E9N4 30-425, one chain of several): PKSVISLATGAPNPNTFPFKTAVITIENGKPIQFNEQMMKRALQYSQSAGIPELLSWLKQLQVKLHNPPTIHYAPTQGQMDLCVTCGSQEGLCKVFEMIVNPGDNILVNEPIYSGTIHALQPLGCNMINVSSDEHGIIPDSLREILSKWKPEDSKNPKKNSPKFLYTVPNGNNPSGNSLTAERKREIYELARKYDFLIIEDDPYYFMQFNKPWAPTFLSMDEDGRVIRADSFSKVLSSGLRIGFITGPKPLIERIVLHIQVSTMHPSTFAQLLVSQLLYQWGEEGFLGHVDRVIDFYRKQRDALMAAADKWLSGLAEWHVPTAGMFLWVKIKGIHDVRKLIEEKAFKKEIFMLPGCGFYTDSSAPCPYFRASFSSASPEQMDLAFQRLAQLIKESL
The note with it: in the presence of pimelic acid; cited from earlier work.

Series [6] concerns PauA catabolic pimeloyl-CoA ligase. To be noted: substrate accepted by PauA, pimelate = 100%; cited from earlier work.

Usually IC50 stands for the concentration that inhibits the measured activity by half. Take `CC(C)(COP(=O)(O)OP(=O)(O)OC[C@H]1O[C@@H](n2cnc3c(N)ncnc32)[C@H](O)[C@@H]1OP(=O)(O)O)[C@@H](O)C(=O)NCCC(=O)NCCS` [CoASH]: the IC50 in series [1] was 10 to 15 µM. In addition, in series [2], the “inhibition of the reaction” value is listed as “not inhibited”. Moreover, the inhibition result at ACOT3 (formerly PTE-1a) and at ACOT5 (formerly PTE-1c) was “no inhibition” each time.
For orientation: Km means the substrate concentration at which the rate is half of its maximum. For the compound `CCCCCCCC/C=C\CCCCCCCC(=O)SCCNC(=O)CCNC(=O)[C@H](O)C(C)(C)COP(=O)(O)OP(=O)(O)OC[C@H]1O[C@@H](n2cnc3c(N)ncnc32)[C@H](O)[C@@H]1OP(=O)(O)O` [oleoyl-CoA], the Km in series [3] was 130 µM.
`O=C(O)CCCCCC(=O)O` [pimelic acid]: the “activity relative to the activity for benzoic acid” value in series [4] (reduction to pimelic acid semialdehyde by CAR from Nocardia) was over 50%. Besides, in series [5], the reduction in activity is listed as 30%. For the same compound, the relative activity in series [6] is 100%.
For the compound `O=C([O-])c1ccccc1.[Na+]` [sodium benzoate], in series [4], the Adjusted for background is given as 0.00133, the “gradient of trend line” value was found to be 0.0141 and the “Relative rate % compared to benzoate” value was 100%.
Consider `O=C([O-])CCCCCC(=O)[O-].[Na+].[Na+]` [sodium pimelate], for which, in series [4], the Adjusted for background was 0.0068, the “gradient of trend line” value is recorded as 0.0076 and the “Relative rate % compared to benzoate” value was found to be 51.1%.
Consider oleoyl-ACP, for which, in series [3], the Km was 8 µM.

Source of the values: patent US10577634B2, “Bioconversion process for producing nylon-7, nylon-7,7 and polyesters” (INVISTA North America S.A.R.L., priority 2011, dated 2020).
